The term AC50 denotes the concentration giving half of the maximal activity seen. Read a high AC50 as activity only at high concentration.

For 17 molecules, AC50 results are on record in ChEMBL document CHEMBL5291721, “A preclinical secondary pharmacology resource illuminates target-adverse drug reaction associations of marketed drugs” (Nat Commun, 2023).

Test [1] addresses cGMP-inhibited 3',5'-cyclic phosphodiesterase 3A (Homo sapiens, UniProt Q14432). The format is functional.
A further test addresses D(1A) dopamine receptor (Homo sapiens, UniProt P21728). The format is functional, cell-based.
Test [2] deals with T1, Alpha-2C adrenergic receptor (Homo sapiens, UniProt P18825).
T1 sequence (P18825 whole entry): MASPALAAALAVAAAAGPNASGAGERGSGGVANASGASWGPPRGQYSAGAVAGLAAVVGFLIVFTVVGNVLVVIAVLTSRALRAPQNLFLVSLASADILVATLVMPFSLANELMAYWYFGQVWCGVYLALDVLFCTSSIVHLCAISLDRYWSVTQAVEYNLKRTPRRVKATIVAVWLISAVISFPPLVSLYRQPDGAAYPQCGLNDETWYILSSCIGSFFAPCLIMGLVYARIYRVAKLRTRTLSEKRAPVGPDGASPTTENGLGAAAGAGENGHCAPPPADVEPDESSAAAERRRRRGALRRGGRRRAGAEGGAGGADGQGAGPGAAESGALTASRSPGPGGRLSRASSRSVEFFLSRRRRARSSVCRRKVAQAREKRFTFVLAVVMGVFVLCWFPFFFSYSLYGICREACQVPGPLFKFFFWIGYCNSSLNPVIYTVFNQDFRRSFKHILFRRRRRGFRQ
The format is functional.

The next test has as its target Histamine H3 receptor (Homo sapiens, UniProt Q9Y5N1).
In a further test the target is T2, Adenosine receptor A1 (Homo sapiens, UniProt P30542).
T2 sequence (P30542 whole entry): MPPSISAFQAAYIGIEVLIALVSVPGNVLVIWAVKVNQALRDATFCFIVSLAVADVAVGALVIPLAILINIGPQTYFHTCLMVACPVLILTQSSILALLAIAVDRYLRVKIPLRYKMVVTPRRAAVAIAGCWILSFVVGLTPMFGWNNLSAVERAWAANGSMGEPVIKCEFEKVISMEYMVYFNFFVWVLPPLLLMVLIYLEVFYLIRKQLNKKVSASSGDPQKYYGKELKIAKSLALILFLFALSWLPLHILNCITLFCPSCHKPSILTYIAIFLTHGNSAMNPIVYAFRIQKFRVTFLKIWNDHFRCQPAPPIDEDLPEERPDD

Test [3] has as its target T3, Neuropeptide Y receptor type 1 (Homo sapiens, UniProt P25929).
T3 sequence (P25929 whole entry): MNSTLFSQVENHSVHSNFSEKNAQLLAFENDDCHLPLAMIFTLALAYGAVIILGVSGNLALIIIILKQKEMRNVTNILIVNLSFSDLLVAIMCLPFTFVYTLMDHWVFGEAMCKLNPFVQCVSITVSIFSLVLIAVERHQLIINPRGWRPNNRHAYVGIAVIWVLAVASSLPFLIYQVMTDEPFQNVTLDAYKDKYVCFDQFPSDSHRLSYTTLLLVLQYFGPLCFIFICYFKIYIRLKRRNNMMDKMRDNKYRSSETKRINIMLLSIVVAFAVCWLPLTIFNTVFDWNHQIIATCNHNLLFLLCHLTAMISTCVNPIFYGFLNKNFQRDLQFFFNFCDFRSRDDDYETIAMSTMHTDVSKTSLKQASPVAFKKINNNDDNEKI

In test [4] the target is 3',5'-cyclic-AMP phosphodiesterase 4D (Homo sapiens, UniProt Q08499). The format is functional.
Sequence of 3',5'-cyclic-AMP phosphodiesterase 4D (Q08499 whole entry): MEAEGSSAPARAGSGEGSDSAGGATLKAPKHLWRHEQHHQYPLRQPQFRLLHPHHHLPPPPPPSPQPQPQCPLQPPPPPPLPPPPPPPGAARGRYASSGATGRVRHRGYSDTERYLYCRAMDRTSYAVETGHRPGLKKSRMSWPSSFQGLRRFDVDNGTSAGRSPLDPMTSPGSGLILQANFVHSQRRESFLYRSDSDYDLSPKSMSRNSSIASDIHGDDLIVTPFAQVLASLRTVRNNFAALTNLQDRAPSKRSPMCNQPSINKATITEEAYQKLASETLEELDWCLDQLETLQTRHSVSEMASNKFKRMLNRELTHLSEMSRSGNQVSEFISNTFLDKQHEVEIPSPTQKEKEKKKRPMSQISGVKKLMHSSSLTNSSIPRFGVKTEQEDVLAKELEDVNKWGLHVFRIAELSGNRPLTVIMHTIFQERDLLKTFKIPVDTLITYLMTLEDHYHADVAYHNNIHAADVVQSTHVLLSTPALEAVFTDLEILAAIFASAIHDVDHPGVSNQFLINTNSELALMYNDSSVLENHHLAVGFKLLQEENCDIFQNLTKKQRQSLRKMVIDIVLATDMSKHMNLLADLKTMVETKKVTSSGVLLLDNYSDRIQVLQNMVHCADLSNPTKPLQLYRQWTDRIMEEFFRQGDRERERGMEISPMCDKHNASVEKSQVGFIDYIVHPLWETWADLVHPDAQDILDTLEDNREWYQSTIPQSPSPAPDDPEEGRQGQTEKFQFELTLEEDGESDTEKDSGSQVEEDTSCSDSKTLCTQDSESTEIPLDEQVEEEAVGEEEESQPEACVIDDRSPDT
Test [5] has as its target Delta-type opioid receptor (Homo sapiens, UniProt P41143).
A further test concerns the target T4, Estrogen receptor (Homo sapiens, UniProt P03372).
T4 sequence (P03372 whole entry): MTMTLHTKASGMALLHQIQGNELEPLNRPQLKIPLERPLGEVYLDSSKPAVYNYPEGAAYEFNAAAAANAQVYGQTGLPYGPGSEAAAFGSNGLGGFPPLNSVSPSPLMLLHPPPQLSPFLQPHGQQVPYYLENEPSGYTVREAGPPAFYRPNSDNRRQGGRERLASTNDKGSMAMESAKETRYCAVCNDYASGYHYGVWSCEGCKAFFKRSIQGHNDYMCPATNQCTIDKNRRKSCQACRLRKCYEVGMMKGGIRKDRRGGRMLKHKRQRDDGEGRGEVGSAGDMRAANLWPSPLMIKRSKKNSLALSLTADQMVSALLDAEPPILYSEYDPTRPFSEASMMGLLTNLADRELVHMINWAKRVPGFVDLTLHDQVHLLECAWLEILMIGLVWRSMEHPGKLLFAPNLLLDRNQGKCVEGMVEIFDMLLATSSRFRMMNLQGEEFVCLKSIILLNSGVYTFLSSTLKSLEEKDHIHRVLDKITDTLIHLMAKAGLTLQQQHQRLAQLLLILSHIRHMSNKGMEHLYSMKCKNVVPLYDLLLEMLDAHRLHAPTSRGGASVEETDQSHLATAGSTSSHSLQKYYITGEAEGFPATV
Also: assay procedure not described here.

Sequence of Delta-type opioid receptor (P41143 whole entry): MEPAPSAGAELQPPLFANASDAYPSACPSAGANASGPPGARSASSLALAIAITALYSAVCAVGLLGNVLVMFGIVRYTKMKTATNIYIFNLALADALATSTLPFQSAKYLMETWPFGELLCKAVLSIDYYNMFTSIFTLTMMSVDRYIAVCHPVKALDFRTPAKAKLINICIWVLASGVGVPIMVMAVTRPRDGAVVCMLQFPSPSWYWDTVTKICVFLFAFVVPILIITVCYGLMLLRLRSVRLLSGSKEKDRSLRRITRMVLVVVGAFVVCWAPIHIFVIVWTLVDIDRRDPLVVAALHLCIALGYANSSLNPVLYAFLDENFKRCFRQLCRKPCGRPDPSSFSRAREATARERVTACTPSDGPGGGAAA
Sequence of Histamine H3 receptor (Q9Y5N1 whole entry): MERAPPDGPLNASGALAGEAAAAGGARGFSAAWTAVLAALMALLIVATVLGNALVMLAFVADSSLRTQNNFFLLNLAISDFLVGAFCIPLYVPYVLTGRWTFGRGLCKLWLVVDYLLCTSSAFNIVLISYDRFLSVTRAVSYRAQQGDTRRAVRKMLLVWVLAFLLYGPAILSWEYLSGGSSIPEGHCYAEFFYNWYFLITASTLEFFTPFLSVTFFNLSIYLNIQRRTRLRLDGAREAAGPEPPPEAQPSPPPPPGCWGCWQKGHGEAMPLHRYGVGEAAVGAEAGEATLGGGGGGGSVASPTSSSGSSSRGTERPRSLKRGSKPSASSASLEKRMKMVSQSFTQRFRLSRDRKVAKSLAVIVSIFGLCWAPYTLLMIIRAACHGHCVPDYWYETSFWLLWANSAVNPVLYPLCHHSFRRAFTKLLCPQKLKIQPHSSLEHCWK
Sequence of D(1A) dopamine receptor (P21728 whole entry): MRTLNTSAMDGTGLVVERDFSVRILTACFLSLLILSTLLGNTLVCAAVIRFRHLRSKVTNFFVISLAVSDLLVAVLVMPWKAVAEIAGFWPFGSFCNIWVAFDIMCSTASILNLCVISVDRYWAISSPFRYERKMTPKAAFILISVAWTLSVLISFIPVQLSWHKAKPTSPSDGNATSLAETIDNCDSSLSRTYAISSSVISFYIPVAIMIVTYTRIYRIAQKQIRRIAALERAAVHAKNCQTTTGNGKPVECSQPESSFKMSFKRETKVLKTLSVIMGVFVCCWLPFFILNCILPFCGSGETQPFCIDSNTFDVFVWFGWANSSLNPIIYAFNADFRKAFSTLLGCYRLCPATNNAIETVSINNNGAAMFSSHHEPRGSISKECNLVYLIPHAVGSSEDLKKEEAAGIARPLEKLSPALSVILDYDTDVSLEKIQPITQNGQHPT
Sequence of cGMP-inhibited 3',5'-cyclic phosphodiesterase 3A (Q14432 whole entry): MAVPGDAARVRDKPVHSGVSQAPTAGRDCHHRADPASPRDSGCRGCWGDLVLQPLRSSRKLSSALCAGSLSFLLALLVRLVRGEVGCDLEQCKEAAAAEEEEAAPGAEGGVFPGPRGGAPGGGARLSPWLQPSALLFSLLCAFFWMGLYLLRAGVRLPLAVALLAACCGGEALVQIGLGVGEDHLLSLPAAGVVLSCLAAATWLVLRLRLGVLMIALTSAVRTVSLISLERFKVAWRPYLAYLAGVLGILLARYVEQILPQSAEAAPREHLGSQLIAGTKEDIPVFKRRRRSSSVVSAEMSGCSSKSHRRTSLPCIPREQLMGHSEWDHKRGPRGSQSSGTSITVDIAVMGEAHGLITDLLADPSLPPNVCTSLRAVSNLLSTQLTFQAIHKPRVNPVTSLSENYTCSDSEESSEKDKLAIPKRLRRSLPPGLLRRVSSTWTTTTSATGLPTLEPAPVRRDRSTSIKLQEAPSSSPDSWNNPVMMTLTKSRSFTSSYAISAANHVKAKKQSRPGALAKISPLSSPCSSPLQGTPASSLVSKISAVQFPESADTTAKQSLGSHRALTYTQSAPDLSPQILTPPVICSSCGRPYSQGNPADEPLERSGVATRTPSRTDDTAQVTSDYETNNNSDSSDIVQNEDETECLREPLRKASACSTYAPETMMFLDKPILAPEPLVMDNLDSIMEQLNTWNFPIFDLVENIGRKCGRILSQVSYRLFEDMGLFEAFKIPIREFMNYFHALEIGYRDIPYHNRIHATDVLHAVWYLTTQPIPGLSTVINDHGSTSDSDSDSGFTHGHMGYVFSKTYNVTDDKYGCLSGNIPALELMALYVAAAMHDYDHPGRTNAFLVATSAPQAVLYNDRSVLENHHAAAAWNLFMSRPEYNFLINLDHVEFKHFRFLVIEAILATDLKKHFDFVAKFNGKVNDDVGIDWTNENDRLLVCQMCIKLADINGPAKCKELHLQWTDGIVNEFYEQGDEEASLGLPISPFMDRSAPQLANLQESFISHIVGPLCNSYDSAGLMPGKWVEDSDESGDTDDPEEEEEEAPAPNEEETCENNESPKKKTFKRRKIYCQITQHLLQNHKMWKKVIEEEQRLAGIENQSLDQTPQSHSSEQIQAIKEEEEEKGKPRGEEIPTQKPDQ

As for `COc1ccc2c(c1)c(CC(=O)OCC(=O)O)c(C)n2C(=O)c1ccc(Cl)cc1` [ACEMETACIN], the AC50 (in test [1]; at D(1A) dopamine receptor; in test [2]; at Histamine H3 receptor; on Adenosine receptor A1; in test [3]) was > 30 µM in each case. The AC50 in test [4] and in test [5] was > 30 µM throughout.

Take `CN1CCc2cccc3c2[C@H]1Cc1ccc(O)c(O)c1-3` [APOMORPHINE]: the AC50 in test [1] is > 30 µM; on Estrogen receptor, 1.47 µM; in test [2] it was 3.2 µM; on Histamine H3 receptor, > 10 µM; at Adenosine receptor A1 it was > 30 µM; in test [3], > 20 µM. Also, the results for the AC50 in [4] and in test [5] were 2.2 µM and > 30 µM, respectively.

Take `CC(C)c1c(C(=O)Nc2ccccc2)c(-c2ccccc2)c(-c2ccc(F)cc2)n1CC[C@@H](O)C[C@@H](O)CC(=O)O` [ATORVASTATIN]: the half-maximal activity concentration (AC50) was > 10 µM in test [1]; > 10 µM in test [2]; > 10 µM on Histamine H3 receptor; > 30 µM on Adenosine receptor A1; > 30 µM in test [3]; > 30 µM in test [4]. Moreover, in [5], the AC50 was > 30 µM.

As to `CN1C(=O)COc2c(C(=O)NC3CN4CCC3CC4)cc(Cl)cc21` (stereo unspecified) [AZASETRON], the AC50 in [1] was > 10 µM; on D(1A) dopamine receptor it was > 30 µM; at Estrogen receptor it was > 30 µM; in [2] it was > 30 µM; at Histamine H3 receptor it was > 30 µM; at Adenosine receptor A1 it was > 30 µM. In addition, the AC50 in test [3] was > 30 µM; in test [4], 4.1 µM; in [5] it was > 30 µM.

In the case of `Cc1cc2c(OCC(CNC(C)(C)C)OC(=O)c3ccccc3)cccc2[nH]1` (stereo unspecified) [BOPINDOLOL], the AC50 in test [1] was > 30 µM; at D(1A) dopamine receptor, > 30 µM; at Estrogen receptor, > 30 µM; in test [2] it was 3 µM; at Histamine H3 receptor it was > 30 µM; at Adenosine receptor A1, > 30 µM. Besides, the AC50 in test [3], in test [4] and in test [5] was > 30 µM throughout.

Regarding `CCCCN1CCCCC1C(=O)Nc1c(C)cccc1C` (stereo unspecified) [BUPIVACAINE], the AC50 (in [1]; at D(1A) dopamine receptor; in test [2]; at Histamine H3 receptor; on Adenosine receptor A1; in [3]) was > 30 µM each time. In addition, the AC50 in [4] and in [5] was > 30 µM in each case.

As to `CC(C)(Oc1ccc(C2CC2(Cl)Cl)cc1)C(=O)O` (stereo unspecified) [CIPROFIBRATE], the AC50 (in test [1]; at D(1A) dopamine receptor; on Estrogen receptor; in [2]; on Histamine H3 receptor; on Adenosine receptor A1) was > 30 µM in each case. Also, the AC50 in [3], in [4] and in [5] was > 30 µM each time.

As to `Cc1c(O)c(=O)ccn1C` [DEFERIPRONE], the AC50 (in test [1]; on D(1A) dopamine receptor; at Estrogen receptor; in [2]; on Histamine H3 receptor; at Adenosine receptor A1) was > 30 µM each time. In addition, the AC50 in test [3], in [4] and in [5] was > 30 µM each time.

Turning to `CC(=O)O[C@@]12CO[C@@H]1C[C@H](O)[C@@]1(C)C(=O)[C@H](O)C3=C(C)[C@@H](OC(=O)[C@H](O)[C@@H](NC(=O)OC(C)(C)C)c4ccccc4)C[C@@](O)([C@@H](OC(=O)c4ccccc4)[C@H]21)C3(C)C` [DOCETAXEL ANHYDROUS], the AC50 (in test [1]; on D(1A) dopamine receptor; on Estrogen receptor; in [2]; at Histamine H3 receptor; on Adenosine receptor A1) was > 30 µM each time. The AC50 in [3], in [4] and in test [5] was > 30 µM in each case.

Consider `CCNC(C)Cc1cccc(C(F)(F)F)c1` (stereo unspecified) [FENFLURAMINE], for which the AC50 in test [1] was > 30 µM; on Estrogen receptor, > 30 µM; at Histamine H3 receptor, > 10 µM; on Adenosine receptor A1, > 30 µM; in test [3], > 30 µM; in test [4], > 30 µM. For the same molecule, the AC50 in [5] is > 30 µM.

In the case of `COc1c(N2CCNC(C)C2)c(F)cc2c(=O)c(C(=O)O)cn(C3CC3)c12` (stereo unspecified) [GATIFLOXACIN], the AC50 in [1] was > 30 µM; on D(1A) dopamine receptor, > 30 µM; in test [2], > 10 µM; on Adenosine receptor A1 it was > 10 µM; in test [3], > 10 µM; in test [4], > 30 µM. The AC50 in [5] is > 30 µM.

As to `CCN1CCC[C@H]1CNC(=O)c1cc(S(N)(=O)=O)ccc1OC` [LEVOSULPIRIDE], the AC50 in test [1] was > 30 µM; at D(1A) dopamine receptor, > 30 µM; on Histamine H3 receptor it was > 10 µM; at Adenosine receptor A1 it was > 30 µM; in [4] it was > 30 µM; in test [5] it was > 30 µM.

For `Cc1cccc(C)c1NC(=O)C1CCCCN1C` (stereo unspecified) [MEPIVACAINE], the AC50 (in test [1]; on D(1A) dopamine receptor; on Estrogen receptor; in [2]; at Histamine H3 receptor; on Adenosine receptor A1) was > 30 µM in each case. The AC50 in [3], in test [4] and in test [5] was > 30 µM each time.

Turning to `COc1ccccc1OCC(O)COC(N)=O` (stereo unspecified) [METHOCARBAMOL], the AC50 is > 30 µM in test [1]; > 10 µM at D(1A) dopamine receptor; > 30 µM at Estrogen receptor; > 10 µM in test [2]; > 10 µM at Adenosine receptor A1; > 10 µM in test [3]. Besides, the AC50 in test [4] and in test [5] was > 30 µM in each case.

On to `CCN(CC)CCOC(=O)c1ccc(N)cc1` [PROCAINE], for which the AC50 is > 10 µM in test [1]; > 10 µM on D(1A) dopamine receptor; > 10 µM in [2]; 8.7 µM at Histamine H3 receptor; > 30 µM at Adenosine receptor A1; > 30 µM in [3]. Besides, the AC50 in [4] was > 10 µM; in test [5] it was > 30 µM.

In the case of `CCCOc1ccc(C(=O)OCCN(CC)CC)cc1N` [PROPARACAINE], the AC50 in test [1] is > 30 µM; on D(1A) dopamine receptor it was > 30 µM; in [2], > 30 µM; at Histamine H3 receptor, 1.3 µM; on Adenosine receptor A1, > 30 µM; in [3], > 30 µM. Also, the concentration at half-maximal activity (AC50) in test [4] and in test [5] was > 30 µM throughout.

Consider `O=C1NCCN1CCN1CCC(c2cn(-c3ccc(F)cc3)c3ccc(Cl)cc23)CC1` [SERTINDOLE], for which the AC50 is > 30 µM in test [1]; > 30 µM at D(1A) dopamine receptor; > 30 µM at Histamine H3 receptor; > 30 µM on Adenosine receptor A1; > 30 µM in test [3]; 20 µM in test [4]. The AC50 in test [5] was > 30 µM.
